In PubChem BioAssay (NCI):
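Interpolation was linear, between the two tested concentrations surrounding the appropriate level; five concentrations were tested over 48 hours in 96-well plates. GI50: concentration for 50% inhibition of growth. TGI: concentration producing complete growth inhibition.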

Experiments:
Test in all cases: NCI-60 cell line screen, 48 h
[1] = tested on: HS 578T breast
[2] = tested on: A498 renal
[3] = tested on: HCT-116 colon
[4] = tested on: MDA-MB-435
[5] = tested on: MCF7 breast
[6] = tested on: RPMI-8226 leukemia
[7] = tested on: CAKI-1 renal
[8] = tested on: U251 CNS

Row | Structure (SMILES) | GI50 [1] | TGI [1] | GI50 [2] | TGI [2] | GI50 [3] | TGI [3] | GI50 [4] | TGI [4] | GI50 [5] | TGI [5] | GI50 [6] | TGI [6] | GI50 [7] | TGI [7] | GI50 [8] | TGI [8]
1 | Oc1ccc(O)c(-c2cn3ccsc3n2)c1 | 30.4 µM | 68.7 µM | 47 µM | 84.5 µM | 5.68 µM | 18.3 µM | 11.2 µM | 23.7 µM | 5.5 µM | 27.2 µM | 1.73 µM | 7.82 µM | 2.18 µM | 4.99 µM | 15.8 µM | 33.7 µM
2 | Cc1ccc2ncnc(N(CC(C)C)CC(C)C)c2c1 | 17.4 µM | 44.3 µM | 13.5 µM | 28.2 µM | – | 27.7 µM | 18.5 µM | 34.7 µM | 21.5 µM | > 100 µM | 1.61 µM | 5.13 µM | 12.8 µM | 26.6 µM | 16.5 µM | 33.3 µM
3 | Nc1nc2c(s1)CCc1c-2c(Br)n(Cc2ccccc2)c1Br | 25.7 µM | 93.8 µM | 17.3 µM | 33.8 µM | 2.53 µM | 6.43 µM | 8.57 µM | 30.7 µM | 11.9 µM | 28.6 µM | – | – | 3.14 µM | 12.1 µM | 14 µM | 28.2 µM
4 | COc1ccc(C(=O)c2cc(OC)c(OC)c(OC)c2)cc1/C=C/C(=O)c1ccc(OC)c(OC)c1 | 11.1 µM | > 100 µM | – | – | 0.416 µM | > 100 µM | 2.29 µM | > 100 µM | 0.418 µM | > 100 µM | 0.587 µM | 11.8 µM | 0.829 µM | > 100 µM | – | –
5 | Nc1nc(OCc2cc(Br)cs2)c2[nH]cnc2n1 | 25.6 µM | 83.7 µM | 11 µM | 48.3 µM | 19.9 µM | > 100 µM | 29.9 µM | > 100 µM | 25.7 µM | > 100 µM | 19.1 µM | > 100 µM | 9.94 µM | 79.6 µM | 28.8 µM | > 100 µM
6 | O=C(c1ccccc1)c1ccc(Oc2ccc([N+](=O)[O-])cc2[N+](=O)[O-])cc1 | 3.46 µM | 38.7 µM | 11 µM | 24.8 µM | 3.29 µM | 26.2 µM | 1.82 µM | 3.98 µM | 3.71 µM | 19.7 µM | 2.56 µM | 7.72 µM | 2.29 µM | 5.52 µM | 3.25 µM | 13.3 µM
7 | COC(=O)C(=O)C(C(=O)C(=O)Nc1nc2ccc(C)cc2s1)c1nc2ccc([N+](=O)[O-])cc2[nH]c1=O (stereo unspecified) | – | > 100 µM | – | > 100 µM | – | > 100 µM | – | > 100 µM | – | > 100 µM | – | > 100 µM | – | > 100 µM | – | > 100 µM
8 | O=C1Nc2c(C(F)(F)F)cccc2[C@@]1(c1ccc(O)cc1)c1ccc(OC(F)(F)F)cc1 | < 0.01 µM | < 0.01 µM | < 0.0148 µM | 0.0337 µM | < 0.0172 µM | – | 7.92 µM | 21.9 µM | < 0.01 µM | 0.0269 µM | 8.99 µM | 50.8 µM | 0.0364 µM | 0.971 µM | 0.319 µM | 20.1 µM
9 | Clc1ccc2c(c1)N(c1ncnc3ccc(-c4cnc5[nH]ccc5c4)cc13)CC2 | 0.555 µM | 16.9 µM | – | – | 1.36 µM | 14.7 µM | 0.295 µM | 1.2 µM | 0.54 µM | > 100 µM | 0.766 µM | > 100 µM | 3 µM | 25.7 µM | 2.51 µM | 10.9 µM
10 | O=CNc1ncn[nH]1 | – | > 100 µM | – | > 100 µM | – | > 100 µM | – | > 100 µM | – | > 100 µM | – | > 100 µM | – | > 100 µM | – | > 100 µM
11 | COc1cc(-c2nc3ccccc3s2)ccc1NC(=O)COc1ccc(Cl)cc1 | 3.73 µM | > 100 µM | 44.5 µM | > 100 µM | 4.41 µM | > 100 µM | 8.16 µM | > 100 µM | 5.05 µM | > 100 µM | 11.8 µM | > 100 µM | 6.95 µM | > 100 µM | 2.23 µM | 6.8 µM
12 | N#Cc1ccccc1NC(=O)C(=O)c1c(O)c2ccccc2oc1=O | – | > 100 µM | – | > 100 µM | – | > 100 µM | – | > 100 µM | – | > 100 µM | – | > 100 µM | – | > 100 µM | – | > 100 µM
13 | CN(Cc1cc(Br)cc(Br)c1O)Cc1cc(Br)cc(Br)c1O | 5.24 µM | 47.7 µM | 4.08 µM | 18.7 µM | 0.812 µM | 12.3 µM | 3.79 µM | 22.6 µM | 2.96 µM | 15 µM | 2.77 µM | 47.9 µM | 0.612 µM | 12.5 µM | 0.689 µM | 13.3 µM
14 | COc1ccc2c(c1)[n+](=O)c(C(=O)c1ccco1)c(C(F)(F)F)n2[O-] | 3.08 µM | 8.86 µM | 3.98 µM | 16 µM | 0.851 µM | 15.1 µM | 3.08 µM | 14.5 µM | 3.82 µM | > 100 µM | 1.62 µM | 22.1 µM | 0.642 µM | 4.54 µM | 2.04 µM | 8.67 µM
15 | O=C1c2ccccc2S(=O)(=O)N1CSC(=S)N1CCCCC1 | > 100 µM | > 100 µM | > 100 µM | > 100 µM | > 100 µM | > 100 µM | > 100 µM | > 100 µM | – | > 100 µM | 0.205 µM | 0.607 µM | > 100 µM | > 100 µM | > 100 µM | > 100 µM
16 | Cl.Fc1c[c-]c(-c2ccccn2)c(F)c1.[Pt].c1ccc(P(c2ccccc2)C([PH+](c2ccccc2)c2ccccc2)[PH+](c2ccccc2)c2ccccc2)cc1 | 2.92 µM | 39 µM | 2.59 µM | 7.47 µM | 2.72 µM | 12.3 µM | 3.4 µM | 16 µM | 2.95 µM | > 100 µM | 1.68 µM | 5.51 µM | 2.19 µM | 7.41 µM | 3.23 µM | 13.6 µM
